Measurements: paper PMC8012336, “An automated and high-throughput-screening compatible pluripotent stem cell-based test platform for developmental and reproductive toxicity assessment of small molecule compounds” (Cell Biology and Toxicology, 2020)
≈ marks a conversion by molar mass, not a printed value.

Tests used:
[1] = Automated CellTiter-Glo luminescent cell viability (cytotoxicity) assay, 5 d; settings: mouse
Method: The CellTiter-Glo® luminescent cell viability assay (Promega, Cat. No. G7573) was automated in 96-well format on the lab automation platform Fluent® (Tecan, Männedorf, Switzerland). The procedure allowed the testing of six compounds in mESC-D3 and NIH/3T3 cells in parallel. On the first day, PBS was dispensed into the peripheral wells of the assay plates (200 μl/well) using the Multiple Channel Arm (MCA). Mouse ES-D3 and NIH/3T3 cells were plated (50 μl/well, 1 × 10^4 cells/ml)) using the Flexible Channel Arm (FCA) and transported into the Cytomat™ 10 (Thermo Fisher Scientific) for incubation using the Robotic Gripper Arm (RGA). A 7-point dilution series of the test compounds and control solutions were prepared in PBS or DMSO (Carl Roth, Cat. No. HN47.1) under the laminar flow, transferred to a 96-well 0.5-ml Masterblock plate (Greiner bio-one, Cat. No. 786261) and placed on the worktable. On the Fluent the compounds were transferred to a 96-well 2-ml Masterblock plate (Greiner bio-one, Cat. No. 780271) and further diluted in growth media using the FCA. Two hours after cell plating compounds and controls were transferred to the assay plate with the FCA (150 μl/well) and transported back in the Cytomat 10. On day three of the assay, the media was exchanged using the MCA: old media was aspirated and dispensed into a 96-deep-well plate (“waste”), freshly prepared compound, and control solution was dispensed into the assay plate. After two more days of incubation, the cell viability was determined using the CellTiter-Glo assay. The assay plates were transported from the Cytomat 10 to the Carousel (Tecan) to adapt to room temperature. After 25 min the cell supernatant was removed partially (80 μl/well) and CellTiter-Glo reagent was dispensed (50 μl/well). The assay plate was placed on a shaker for 1 min and afterward incubated 25 min in the Carousel before the Luminescence signal was detected on the Infinite M1000 Pro plate reader (Tecan).
(§1) Toxicity data from the MTT and CellTiter-Glo Assay was normalized against the vehicle control (100% viability) and plotted against the logarithmic compound concentration.

[2] = Manual MTT cell viability assay, 7 d; type: cell-based, mouse; settings: mouse, manual, in brackets the two individual experiments
Method: (§2) The MTT cell viability assay was performed as described (Seiler and Spielmann [2011]) with modifications. In brief, 96-well cell culture plates were coated with gelatin (0.1%) before plating mESC-D3. All peripheral wells of the assay plate were filled with 200 μl growth media (“blank”). Afterward, NIH/3T3 and mESC-D3 were plated in growth media (1 × 10^4 cells/ml, 50 μl/well). […] Vehicle (PBS) and positive control (5-fluorouracil) wells were also included on all assay plates. Three and 5 days after seeding the cell supernatant was replaced by freshly prepared compound solution (200 μl/well). Seven days after seeding the cell viability was detected. Therefore, the cell supernatant was aspirated from all wells, MTT solution (5 mg/ml) was added (20 μl/well) and the assay plate was incubated for 2 h at 37 °C and 5% CO2 in a humidified atmosphere. Afterward, all liquid was removed from the wells and MTT desorb solution (0.7% SDS in 2-propanol (Carl Roth, Cat. No. 9866.5), pre-warmed to 37 °C) was dispensed (130 μl/well). The assay plate was placed on a shaker for 15 min. Remaining precipitates were suspended by pipetting up and down with a multichannel pipette before measuring the absorption at 570 nm on a microtiter plate reader using 630 nm as a reference wavelength.
as §1

[3] = Manual CellTiter-Glo luminescent cell viability assay (7 d or 5 d); type: cell-based, mouse; settings: mouse, in brackets the two individual experiments
Method: 96-well cell culture plates were coated with gelatin (0.1%) before plating mESC-D3. All peripheral wells of the assay plate were filled with 200 μl growth media. In order to assess compound toxicity on mESC-D3 and NIH/3T3 cells, cell suspensions of NIH/3T3, and mESC-D3 were prepared in growth media (1 × 10^4 cells/ml) and were transferred to all remaining wells (50 μl/well). A 7-point dilution series in growth media was prepared for each test compound and was transferred to the assay plate 2 h after cell seeding (150 μl/well). Afterward, the cells were incubated in a humidified atmosphere at 37 °C and 5% CO2. Three and 5 days after seeding the cell supernatant was replaced by freshly prepared compound solution (200 μl/well). […] The assay plate was placed on a shaker for 1 min and after another 10 min incubation at room temperature in the dark the luminescence signal was detected on a plate reader.
as §1

[4] = system: mESC-D3; experiment: Conventional mouse ES-D3 differentiation assay in hanging drop format (petri dish; cardiomyocyte contraction, day 10); type: cell-based; settings: manual; beating cardiomyocytes at day 10; in brackets the two individual experiments
Method: Separate Petri dishes were used for each concentration of test compound, untreated control, and solvent control. […] The EB suspension was incubated for 2 days. On day five of the assay, a fresh compound dilution series was prepared in media and transferred into 24-well cell culture plates (1 ml/well, Greiner bio-one, Cat. No. 662641). A separate 24-well plate was used for each compound concentration, untreated control, and solvent control (24 wells per condition). One EB was transferred from the Petri dish into each well of the 24-well plate. After further 5 days of incubation (= day 10 of the assay), cardiomyocyte contraction was determined in each well under the light microscope.

[5] = system: mESC-D3 and NIH/3T3 cells; settings: manual murine EST assay; prediction model of Seiler and Spielmann 2011
[6] = system: mESC-D3; design: method as in Scholz et al. [1999]; settings: ZEBET value, 7 d result; ref Scholz et al. [1999]; cited from earlier work
[7] = system: NIH/3T3; design: method as in Scholz et al. [1999]; settings: ZEBET value, 7 d result; ref Scholz et al. [1999]; cited from earlier work
[8] = system: mESC-D3; design: method as in Scholz et al. [1999]; settings: ZEBET value printed beside hanging drop differentiation result; ref Scholz et al. [1999]; cited from earlier work
[9] = Manual human EST cytotoxicity assay, MTT, 5 d; settings: human
Method: (§3) The cytotoxicity assessment with a reduced assay time of 5 days combined with either NADH- or ATP-based detection was also carried out with human induced pluripotent stem cells (hiPSCs). […] Furthermore, differences in the cytotoxicity effects between the hiPSCs and HDFfs were more pronounced than in the mouse cells. Similar to the cytotoxicity-based assay the overall variance in the data is reduced when viability data was obtained by an ATP-based read-out.
as §2
(§4) Figure S1: Step-wise evolution of the cytotoxicity assay towards the use of human cell lines. Related to Figure 2. Cytotoxicity assays were carried out with two compound sets on hiPSC line ZIPi013-E and HDFf, from which they were derived. […] A) 5 day MTT assay and manual handling. B) As in A), but using CellTiter-Glo® viability assay. All points in the graph represent the mean of 6 individual data points, including the standard error.

[10] = Manual human EST cytotoxicity assay, CellTiter-Glo, 5 d; settings: human
Method: as §3
96-well cell culture plates were coated with gelatin (0.1%) before plating mESC-D3. All peripheral wells of the assay plate were filled with 200 μl growth media. In order to assess compound toxicity on mESC-D3 and NIH/3T3 cells, cell suspensions of NIH/3T3, and mESC-D3 were prepared in growth media (1 × 10^4 cells/ml) and were transferred to all remaining wells (50 μl/well). A 7-point dilution series in growth media was prepared for each test compound and was transferred to the assay plate 2 h after cell seeding (150 μl/well). Afterward, the cells were incubated in a humidified atmosphere at 37 °C and 5% CO2. Three and 5 days after seeding the cell supernatant was replaced by freshly prepared compound solution (200 μl/well). Seven days after seeding the assay plate was taken out of the incubator and located at room temperature for 10 min, before cell supernatant was aspirated (80 μl/well) and CellTiter-Glo® reagent was dispensed (50 μl/well). The assay plate was placed on a shaker for 1 min and after another 10 min incubation at room temperature in the dark the luminescence signal was detected on a plate reader.
as §4

[11] = system: mESC-D3; type: cell-based, mouse
Method: As an alternative to the morphological analysis at day 10, differentiation can be analyzed at day 7 of the assay by flow cytometry using the molecular flow EST (Buesen et al. [2009]). Previously, staining of cardiomyocytes was performed using an unconjugated primary monoclonal antibody directed against the sarcomeric MHC (clone MF20), followed by binding of a secondary biotin-conjugated goat anti-mouse IgG antibody which is then detected with the fluorochrome PE-SA (phycoerythrin-conjugated streptavidin) (Seiler and Spielmann [2011]). […] Of note, these experiments were performed in parallel with the same batch of spontaneously differentiated mESCs.
Embryoid bodies were formed in hanging drops (Petri dish) as already described. On day 5 of the assay, the EBs were transferred into a larger Petri dish and incubated for two more days at 37 °C, 5% CO2, and 95% humidity. Afterward, the EBs were dissociated using the Embryoid Body Dissociation Kit (Miltenyi Biotec, Cat. No. 130-096-348). EBs from two Petri dishes were harvested in one 15 ml tube and washed once with 10 ml PBS. The supernatant was discarded after centrifugation and a pre-warmed enzyme mix was added. The EB/enzyme mix was incubated for 10 min at 37 °C, dissociated for 1 min with a 1000 μl pipette, incubated for 5 min and mechanically dissociated again for 1 min. After the addition of 3 ml PBS, the cell suspension was passed through a 70-μm filter into a new 15-ml tube. The filter was then washed with 3 ml PBS and discarded afterward. The cell suspension was centrifuged for 5 min at 300 rpm. The supernatant was discarded afterward, cells were suspended in PBS and counted. For viability staining, 10^6 cells were suspended in 100 μl staining reagent (LIVE/DEAD™ Fixable Green Dead Stain Kit, Life Technologies, Cat. No. L34969), incubated for 30 min at 4 °C and washed with 1 ml PBS. For fixation, cells were suspended in 100 μl fixation buffer (BioLegend, Cat. No. 420801) and incubated 20 min at room temperature. For the intracellular staining, cells were washed twice with 1 ml permeabilization buffer (BioLegend, Cat. No. 421002) and suspended in 50 μl permeabilization buffer supplemented with 50 μl of pre-diluted (1:5) antibody (mouse IgG2B anti-human Myosin Heavy Chain APC-conjugated, mouse IgG2B APC-conjugated isotype control, R&D Systems, Cat. No. IC4470A). After 1 h incubation at room temperature cells were washed twice with 1 ml permeabilization buffer and suspended in FACS buffer. Within 2–3 h samples were measured on an LSR II flow cytometer (Beckton Dickinson). Data analysis was done using FlowJo software (Version 10.0.8; Tree Star).

[12] = mESC-D3 cells (mouse embryonic stem cells)
[13] = mESC-D3 cells, read-out: Cytotoxicity assay MTT, 7 d IC50 mESC-D3
[14] = mESC-D3 cells, read-out: Cytotoxicity assay CTG, 5 d IC50 mESC-D3
[15] = mESC-D3 cells, read-out: Cytotoxicity assay CTG, 7 d IC50 mESC-D3
[16] = HDFf (human dermal fibroblasts of fetal origin)

SMILES	IC50 at 5 d ([1]; NIH/3T3 cells) [µg/mL]	IC50 at 5 d [1, 12] [µg/mL]	IC50 at 7 d ([2]; NIH/3T3 cells, read-out: Cytotoxicity assay MTT, 7 d IC50 NIH/3T3) [µg/mL]	IC50 at 7 d [2, 13] [µg/mL]	IC50 at 5 d ([3]; NIH/3T3 cells, read-out: Cytotoxicity assay CTG, 5 d IC50 NIH/3T3) [µg/mL]	IC50 at 7 d ([3]; NIH/3T3 cells, read-out: Cytotoxicity assay CTG, 7 d IC50 NIH/ 3T3) [µg/mL]	IC50 at 5 d [3, 14] [µg/mL]	IC50 at 7 d [3, 15] [µg/mL]	Differentiation assay in hanging drop (petri dish) ID50 mESC-D3 [4]	Compound classification [5]	IC50 mESC-D3 (ZEBET) [6] [µg/mL]	IC50 NIH/3T3 (ZEBET) [7] [µg/mL]	ID50 mESC-D3 (ZEBET) [8] [µg/mL]	IC50 at 5 d [9, 16] [µg/mL]	IC50 at 5 d ([9]; hiPSC line ZIPi013-E) [µg/mL]	IC50 at 5 d [10, 16] [µg/mL]	IC50 at 5 d ([10]; hiPSC line ZIPi013-E) [µg/mL]	ID50 FACS (MHC-positive cells) ([11]; flow cytometry, day 7) [µg/mL]	MHC-positive cells ([11]; treated with 10 μg/ml, untreated 31% (hydroxyurea), 26% (fumonisine B1)) [%]
C[C@@H]1C[C@H]2[C@@H]3CCC4=CC(=O)C=C[C@]4(C)[C@@]3(F)[C@@H](O)C[C@]2(C)[C@@]1(O)C(=O)CO [Dexamethasone, dexamethasone]	> 50	18.7 (≈ 47.6 µM)	49.2 (≈ 125 µM)	23.5 (≈ 59.9 µM)	34.8 (≈ 88.7 µM)	35.2 (≈ 89.7 µM)	15.7 (≈ 40 µM)	20.8 (≈ 53 µM)	25.7 (29.1; 22.3) µg/ml	weak embryotoxicity	23 (≈ 58.6 µM)	26 (≈ 66.2 µM)	18.3 (≈ 46.6 µM)						
Cn1c(=O)c2c(ncn2C)n(C)c1=O [Caffeine, caffeine]		138 (≈ 711 µM)		152 (≈ 783 µM)			172 (≈ 886 µM)	119 (≈ 613 µM)	130 (130; > 200) µg/ml				185 (≈ 953 µM)	358 (≈ 1850 µM)	13.3 (≈ 68.3 µM)	412 (≈ 2120 µM)	43.6 (≈ 225 µM)		
CCCC[C@@H](C)[C@@H](OC(=O)C[C@@H](CC(=O)O)C(=O)O)[C@H](C[C@@H](C)C[C@H](O)CCCC[C@@H](O)C[C@H](O)[C@H](C)N)OC(=O)C[C@@H](CC(=O)O)C(=O)O [Fumonisin, fumonisine B1]																		2.26 (≈ 3.13 µM)	3
